The values that follow come from US7605175B2, “Inhibitors of cyclin-dependent kinases, compositions and uses related thereto” (GPC Biotech AG, priority 2001, dated 2009).

pIC50: −log10 of the molar value. Like-named read-outs stand apart in the source and are kept apart here.

The test system of one data set is HIV-1 ROJO. Briefly: Antiviral activity in PBMCs infected with HIV-1 ROJO (reverse transcriptase). Type of data set: cell-based. Here is the method: (§1) The activity of the certain compounds of the invention was evaluated in peripheral blood mononuclear cells (PBMCs) infected with the low passage, clinical isolate HIV-1 ROJO to generate a measure of the efficacy of these compounds in acutely infected cells. The use of these normal human cells allows an estimate of the therapeutic index of these compounds to be made. Fresh PBMCs from two donors were pooled and stimulated with PHA-P for 48-72 hours. The cells were then cultured in the presence of IL-2 to maintain the cell division initiated by the mitogenic signal. The virus was added at a multiplicity of infection of 0.1. The cells were cultured for 7 days post infection prior to the evaluation of efficacy. Viral replication was measured by the level of reverse transcriptase activity in the supernatant and cytotoxicity was measured with the MTS assay.

Data set [1] concerns peripheral blood mononuclear cells (PBMCs). Nature of the data set: Cytotoxicity in PBMCs (MTS assay). Type of data set: cell-based, human. The conditions noted are these: read-out: TC50: 50% cytoxicity (MTS). As to the method:
as §1

For another data set, the system named is HCT-116 cells. Nature of the data set: BrdU incorporation assay. Type of data set: cell-based. The conditions noted are these: Homo sapiens, read-out: Brd U, concentration that inhibits BrdU incorporation by 50%. Here is the method:
This method measured the percentage of cells that incorporated the nucleotide analog, BrdU, into newly synthesized DNA as cells progressed through the S phase of the cell cycle. The inhibition of BrdU incorporation was used as a measure of a Cdk inhibitor's effect on S phase progression and DNA replication.
3 sets of HCT-116 cells (100,000 cells/set) were plated in T25 flasks and incubated with a test compound as above. Analysis was done at 24, 48, and 72 hours. BrdU was added to each T-25 flask from a stock of 10 mg/ml to a final concentration of 10 μM and the cells were incubated for an additional 16-18 hours at 37° C. The cells were then prepared for flow cytometric analysis according to manufacturer's protocol (BrdU Flow kit, BD-Pharmingen catalogue #2354KK) as follows:
Cells were harvested (adherent and floating) from the T25 flasks directly into Falcon 12×75 flow cytometric tubes as above followed by fixation and permeabilization with the addition of 100 μl of Cytofix/Cytoperm buffer (30 minutes, room temperature). The cells were then washed with 1 ml of Perm Wash buffer and the cell pellets were resuspended in 100 μl Cytoperm Plus buffer and incubated on ice for 10 minutes. The cells were then washed again with 1 ml of Perm Wash buffer and the fixation was repeated in 100 μl of Cytofix/Cyto Perm buffer for 10 minutes at room temperature. The cells were then washed with 1 ml of Perm Wash buffer. The cells were next treated for one hour at 37° C. with 100 μl DNase to expose incorporated BrdU followed by another wash step with 1 ml of Perm Wash buffer. […] Cells were protected from light and incubated at room temperature for 20-30 minutes. Following the incubation, the cells were washed with 1 ml of Perm Wash buffer, resuspended in 300 μl of 2% FBS in PBS, and analyzed on the flow cytometer. Results are presented in Table 2 as the concentration of compound (μM) that inhibits of BrdU incorporation by 50%.

For the next data set, the system named is arrested HCT-116 cells. Nature of the data set: Arrested cell assay, arrested HCT-116 tumor cells. Type of data set: cell-based. The note with it: Homo sapiens, serum-starved arrested cells, 72 hours, read-out: Arrested cell assay HCT IC50. Here is the method:
(§2) Cyclin-dependent kinase (Cdk) activity is required to promote the progression of cells through distinct phases of the cell division cycle. The proliferation of normal, non-transformed, cells in culture requires the presence of growth factors, the removal of which, through serum deprivation, leads to a loss of Cdk activity and consequent exit from the cell cycle as cells enter the quiescent phase, G0.
HCT-116 cells were plated in triplicate for each compound concentration to be tested in RPMI 1640 media containing 10% fetal calf serum at a density of either 200 or 2,000 cells per well in 24 well dishes, and incubated overnight at 37° C., 5% CO2. The media from the plate containing 2,000 cells per well was removed, cells were washed once with serum free media and 1 ml of serum free media was placed on cells. The plates containing cells both in the presence and absence of serum were incubated for 6 additional days.
(§3) The cells are incubated in the presence of the compounds for 72 hours (3 days) at 37° C. […] Cycling and arrested HCT-116 cells as well as cycling IMR90 cells were exposed to a panel of 6 doses ranging from 5 to 250 nM. For arrested normal cells, the range of doses was increased to 50 nM to 25 μM, to compensate for the expected decrease in activity.
(§4) The effect of 72 hours of compound exposure on cellular viability was assessed in the Calcein AM assay. Calcein AM is a fluorescent substrate of intracellular esterases that are only active in viable cells. Cleavage of the substrate thus provides a measure of viability, which is proportional to cell number.
(§5) A Calcein AM stock solution was prepared by dissolving a 50 μg aliquot (Molecular Probes catalogue # C3100) in 50 μl DMSO. The tube was incubated at room temperature for approximately 10 minutes to ensure that the Calcein had dissolved completely. The calcein was diluted into 10 ml PBS to prepare the final solution, which was protected from light.
(§6) The media was aspirated off the cells, which were then washed twice with 1 ml PBS to remove the PBS completely from cells by aspiration. 0.5 ml of the Calcein/PBS solution was transferred by pipette into each well. The plates were incubated at 37° C. for 75 minutes (protected from light) and read on a fluorescent plate reader (excitation 485/20 and emission 530/25).

Another data set relates to arrested IMR90 cells. Nature of the data set: Arrested cell assay, arrested IMR90 normal cells. Type of data set: cell-based. The conditions noted are these: Homo sapiens, IMR-90; serum-starved arrested cells, 72 hours; read-out: Arrested cell assay IMR90 IC50. Here is the method:
as §2
IMR90 cells were plated in triplicate for each compound concentration to be tested in MEM-A media containing 10% fetal calf serum at a density of either 2,000 or 20,000 cells per well in 24-well dishes and incubated overnight at 37° C., 5% CO2. The media was removed from the 20,000 cell-per-well dish, cells were washed once with serum-free media, and serum-free media was placed on cells. The plates containing cells both in the presence and absence of serum were incubated for 3 additional days.
as §3, §4, §5, §6

Data set [2] concerns the target protein kinase C (mixed isozymes). Nature of the data set: Protein kinase C TCA precipitation assay. The class given is biochemical, rat. The note with it: Table 5; read-out: PKC IC50. As to the method: Enzymes: Cdc2/cyclin B was obtained from commercial sources. Cdk2/his-cyclin Eshort was expressed in Sf9 cells. Cdk2/cyclin A, cdk4/cyclin D1, and cdk6/cyclin D2 were expressed in Sf9 cells. Protein kinase A (catalytic subunit, from bovine heart) and protein kinase C (mixed isozymes from rat brain) were obtained from commercial sources.
Protein kinase C and protein kinase A were assayed using a TCA precipitation assay with Histone H1 as a substrate. For protein kinase A, the final assay contained 50 mM Tris, 10 mM MgCl2, 1 mM dithiothreitol, pH 7.5, 12 μM adenosine triphosphate, 10% (v/v) dimethylsulfoxide (from compounds), 20 μg Histone H1, 2 μCi [γ-^32P] adenosine triphosphate, 0.2 U protein kinase A in a 100 μL assay. A protein kinase C assay contained 50 mM Tris, 10 mM MgCl2, 1 mM dithiothreitol, 0.8 mM CaCl2, pH 7.5, 5 μM adenosine triphosphate, 10% (v/v) dimethylsulfoxide (from compounds), 20 μg Histone H1, 2 μCi [γ-^32P] adenosine triphosphate, 0.01 U protein kinase C in a 50 μL assay. The assays were started by the addition of enzyme, allowed to react for 10 min at 30° C., and stopped by adding 0.4 volumes of 237 mM disodium ethylenediamine tetraacetate, 105 mM adenosine triphosphate, pH 8.0. […] The filters were washed ten times with 25% (w/v) trichloroacetic acid, and the amount of incorporated [^32P]phosphate was determined by adding 100 μl Microscint and scintillation counting.

`Cc1cn([C@H]2C[C@H](N=[N+]=[N-])[C@@H](CO)O2)c(=O)[nH]c1=O` [AZT, reference compound]: in the data set with HIV-1 ROJO, the “TI: TC50/IC50” value is more than 100. Further, the pIC50 with HIV-1 ROJO (read-out: IC50: 50% inhibition of virus replication measured by reverse transcriptase levels in the supernatant, HIV-1 ROJO, 7 days post infection) was more than 8.00. The CC50 in data set [1] was more than 1000 nM.
For `CC(C)N1CCN(CCOc2ccc(-c3[nH]nc4c3C(=O)c3c(NC(=O)NN5CCOCC5)cccc3-4)cc2)CC1` [E], the pIC50 with HCT-116 cells (HCT-116, 24 h) is more than 8.00; in the data set on HCT-116 cells (HCT-116, 48 h) it was more than 7.00; in the data set on arrested HCT-116 cells, more than 7.00; in the data set on arrested IMR90 cells, less than 7.00; in data set [2], more than 5.00.
